Measurements taken from paper PMC9488889, “Insight into mode-of-action and structural determinants of the compstatin family of clinical complement inhibitors” (Nature Communications, 2022).
Like-named read-outs stand apart in the source and are kept apart here. Bridge positions count the residues as written; N and C are the ends. Square brackets hold non-standard residues; d marks the D form. Peptide text beside a SMILES is read from it. Trp(1-Me) = Cn1cc(C[C@H](N)C(=O)O)c2ccccc21; NMeI = CC[C@H](C)[C@H](NC)C(=O)O; Sar = CNCC(=O)O

Molecular target: T1, C3b (Homo sapiens, UniProt P01024)
T1 construct: the α’NT, MG6^α−8, anchor, and C-terminal complement (CTC) domains of the α-chain that are all shared between C3c and C3b; purchased Complement Technology (Tyler, TX, USA)
T1 sequence (P01024 23-667 limits assumed): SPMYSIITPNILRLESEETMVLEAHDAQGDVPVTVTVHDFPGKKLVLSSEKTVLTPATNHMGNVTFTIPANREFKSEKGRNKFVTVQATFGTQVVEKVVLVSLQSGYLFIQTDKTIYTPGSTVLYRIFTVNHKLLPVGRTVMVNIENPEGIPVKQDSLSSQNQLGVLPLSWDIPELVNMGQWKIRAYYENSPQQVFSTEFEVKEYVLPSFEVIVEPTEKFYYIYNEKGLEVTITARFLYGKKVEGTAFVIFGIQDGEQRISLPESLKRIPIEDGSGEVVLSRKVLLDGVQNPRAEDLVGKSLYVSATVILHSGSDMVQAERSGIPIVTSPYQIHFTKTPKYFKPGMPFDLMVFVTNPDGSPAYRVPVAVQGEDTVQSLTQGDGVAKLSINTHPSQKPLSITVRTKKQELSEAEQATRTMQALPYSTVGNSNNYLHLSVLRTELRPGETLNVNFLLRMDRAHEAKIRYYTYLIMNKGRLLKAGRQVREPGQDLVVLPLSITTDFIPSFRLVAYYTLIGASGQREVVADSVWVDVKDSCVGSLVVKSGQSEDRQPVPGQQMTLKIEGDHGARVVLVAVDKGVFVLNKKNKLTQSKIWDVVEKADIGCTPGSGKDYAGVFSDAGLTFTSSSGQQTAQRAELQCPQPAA
T1 sequence (P01024 749-1663 limits assumed): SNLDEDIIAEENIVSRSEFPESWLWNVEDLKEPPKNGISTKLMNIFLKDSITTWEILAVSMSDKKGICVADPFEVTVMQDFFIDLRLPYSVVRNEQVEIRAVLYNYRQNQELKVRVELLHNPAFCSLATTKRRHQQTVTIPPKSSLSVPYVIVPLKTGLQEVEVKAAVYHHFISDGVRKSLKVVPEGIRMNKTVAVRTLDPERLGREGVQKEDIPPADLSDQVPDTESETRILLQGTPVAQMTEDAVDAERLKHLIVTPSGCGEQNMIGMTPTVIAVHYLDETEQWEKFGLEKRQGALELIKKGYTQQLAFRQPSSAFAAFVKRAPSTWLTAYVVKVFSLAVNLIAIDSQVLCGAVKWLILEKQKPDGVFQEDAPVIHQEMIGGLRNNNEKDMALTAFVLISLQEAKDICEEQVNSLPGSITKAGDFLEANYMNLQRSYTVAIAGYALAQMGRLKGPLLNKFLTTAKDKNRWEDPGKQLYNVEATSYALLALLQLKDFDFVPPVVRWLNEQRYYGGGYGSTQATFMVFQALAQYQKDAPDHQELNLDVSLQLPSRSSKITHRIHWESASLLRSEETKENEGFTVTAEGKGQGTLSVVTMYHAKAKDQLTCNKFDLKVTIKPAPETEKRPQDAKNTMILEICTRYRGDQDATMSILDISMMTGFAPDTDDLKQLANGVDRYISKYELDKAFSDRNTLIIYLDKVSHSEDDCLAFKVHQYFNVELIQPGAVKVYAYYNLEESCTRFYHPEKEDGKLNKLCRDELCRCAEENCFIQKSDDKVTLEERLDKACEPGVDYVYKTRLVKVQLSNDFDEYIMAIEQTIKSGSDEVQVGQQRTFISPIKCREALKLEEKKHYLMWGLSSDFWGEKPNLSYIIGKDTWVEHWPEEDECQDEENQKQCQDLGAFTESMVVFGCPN
Assay: SPR kinetic binding studies on immobilized C3b
Details: for kd: Suppl. Fig. 7e, Cp40 analogs at position 5, three SPR experiments
Experimental: All compstatin analogues were characterized concerning affinity and kinetic profiles by surface plasmon resonance (SPR) using a Biacore T200 instrument (Cytiva, Piscataway, USA). Experiments were run at 25 °C in HBST buffer (10 mM HEPES, 150 mM NaCl, 0.05% Tween-20, pH 7.4). C3b was immobilized on a carboxymethyl dextran hydrogel chip (CMD200; XanTec, Düsseldorf, Germany) using standard amine coupling in sodium acetate buffer pH 4.5 at a flow rate of 10 µl/min. Immobilization densities of 8000 and 4000 resonance units (RU) were achieved on separate flow cells. A reference flow cell was activated with the same method (NHS/EDC). All active sites were inactivated and blocked with ethanolamine. A single cycle approach at a flow rate of 30 µl/min was used for kinetic analysis by injecting five increasing concentrations of each compound (0.5–40 nM) consecutively without regeneration in-between injections. Individual injections within a cycle were 120 s long with a 60 sec dissociation phase between injections. After the highest concentration of each derivative, a dissociation period of 6,000–14,400 sec was added to ensure complete dissociation in absence of suitable regeneration method. […] Signals from the reference cell from an ensemble of buffer blank injections were subtracted to correct for buffer effects and injection artefacts. Kinetic data was processed with the Biacore T200 Software (version 3.1; Cytiva) using a single-cycle evaluation setup by global fitting each data set to a 1:1 Langmuir binding model. Association and dissociation rate constants (ka and kd, respectively) were fitted, and the equilibration constant KD was calculated based on the following equation: KD = kd/ka. Each assay was performed at least twice and in duplicate injections.

[1] = Table 1, amine-reactive immobilized C3b, 25 °C, average±SD of three independent SPR experiments, read-out: KD
[2] = pH 7.4, read-out: ka, Dataset 1
[3] = pH 7.4, read-out: ka, Dataset 2
[4] = pH 7.4, read-out: ka, Dataset 3
[5] = source data of Table 1, single SPR dataset 1, read-out: KD, Dataset 1
[6] = source data of Table 1, single SPR dataset 2, read-out: KD, Dataset 2
[7] = source data of Table 1, single SPR dataset 3, read-out: KD, Dataset 3

SMILES	kd	kon (pH 7.4, read-out: ka)	Kd [1]	kon [2]	kon [3]	kon [4]	Kd [5]	Kd [6]	Kd [7]
CC[C@H](C)[C@H](NC(=O)[C@H](N)Cc1ccc(O)cc1)C(=O)N[C@H]1CSSC[C@@H](C(=O)N(C)[C@H](C(N)=O)[C@@H](C)CC)NC(=O)[C@H](CCCNC(=N)N)NC(=O)[C@H](Cc2c[nH]cn2)NC(=O)[C@H](C)NC(=O)CN(C)C(=O)[C@H](Cc2c[nH]c3ccccc23)NC(=O)[C@H](CC(=O)O)NC(=O)[C@H](CCC(N)=O)NC(=O)[C@H](Cc2cn(CCC(C)C)c3ccccc23)NC(=O)[C@H](C(C)C)NC1=O [1(3Me)BuW]	0.7 ± 0.0 10-3 s-1	200000 M⁻¹ s⁻¹							
CCCCn1cc(C[C@@H]2NC(=O)[C@H](C(C)C)NC(=O)[C@@H](NC(=O)[C@@H](NC(=O)[C@H](N)Cc3ccc(O)cc3)[C@@H](C)CC)CSSC[C@@H](C(=O)N(C)[C@H](C(N)=O)[C@@H](C)CC)NC(=O)[C@H](CCCNC(=N)N)NC(=O)[C@H](Cc3c[nH]cn3)NC(=O)[C@H](C)NC(=O)CN(C)C(=O)[C@H](Cc3c[nH]c4ccccc34)NC(=O)[C@H](CC(=O)O)NC(=O)[C@H](CCC(N)=O)NC2=O)c2ccccc21 [1BuW]	0.5 ± 0.2 10-3 s-1	200000 M⁻¹ s⁻¹							
CC[C@H](C)[C@H](NC(=O)[C@H](N)Cc1ccc(O)cc1)C(=O)N[C@H]1CSSC[C@@H](C(=O)N(C)[C@H](C(N)=O)[C@@H](C)CC)NC(=O)[C@H](CCCNC(=N)N)NC(=O)[C@H](Cc2c[nH]cn2)NC(=O)[C@H](C)NC(=O)CN(C)C(=O)[C@H](Cc2c[nH]c3ccccc23)NC(=O)[C@H](CC(=O)O)NC(=O)[C@H](CCC(N)=O)NC(=O)[C@H](Cc2cn(CC)c3ccccc23)NC(=O)[C@H](C(C)C)NC1=O [1EtW]	1.2 ± 0.3 10-3 s-1	700000 ± 300000 M⁻¹ s⁻¹							
CC[C@H](C)[C@H](NC(C)=O)C(=O)N[C@H]1CSSC[C@@H](C(=O)N(C)[C@H](C(N)=O)[C@@H](C)CC)NC(=O)[C@H](CCCNC(=N)N)NC(=O)[C@H](Cc2c[nH]cn2)NC(=O)[C@H](C)NC(=O)CN(C)C(=O)[C@H](Cc2c[nH]c3ccccc23)NC(=O)[C@H](CC(=O)O)NC(=O)[C@H](CCC(N)=O)NC(=O)[C@H](Cc2cn(C)c3ccccc23)NC(=O)[C@H](C(C)C)NC1=O [Cp20, reference compound]		1.3e+06 ± 300000 M⁻¹ s⁻¹	3.4 ± 0.6 nM	1.63e+06 M⁻¹ s⁻¹	1.23e+06 M⁻¹ s⁻¹	960000 M⁻¹ s⁻¹	3.78 nM	2.6 nM	3.76 nM
CC[C@H](C)[C@H](NC(=O)[C@H](N)Cc1ccc(O)cc1)C(=O)N[C@H]1CSSC[C@@H](C(=O)N(C)[C@H](C(N)=O)[C@@H](C)CC)NC(=O)[C@H](CCCNC(=N)N)NC(=O)[C@H](Cc2c[nH]cn2)NC(=O)[C@H](C)NC(=O)CN(C)C(=O)[C@H](Cc2c[nH]c3ccccc23)NC(=O)[C@H](CC(=O)O)NC(=O)[C@H](CCC(N)=O)NC(=O)[C@H](Cc2c[nH]c3ccccc23)NC(=O)[C@H](C(C)C)NC1=O [Cp40 (1MeW)5 W]		200000 M⁻¹ s⁻¹		130000 M⁻¹ s⁻¹	150000 M⁻¹ s⁻¹	180000 M⁻¹ s⁻¹			
CC[C@H](C)[C@H](NC(=O)[C@H](N)Cc1ccc(O)cc1)C(=O)N[C@H]1CSSC[C@@H](C(=O)N(C)[C@H](C(N)=O)[C@@H](C)CC)NC(=O)[C@H](CCCNC(=N)N)NC(=O)[C@H](Cc2c[nH]cn2)NC(=O)[C@H](C)NC(=O)CN(C)C(=O)[C@H](Cc2c[nH]c3ccccc23)NC(=O)[C@H](CCC(=O)O)NC(=O)[C@H](CCC(N)=O)NC(=O)[C@H](Cc2cn(C)c3ccccc23)NC(=O)[C@H](C(C)C)NC1=O [Cp40 D7E] (H-[dY]ICV[Trp(1-Me)]QEW[Sar]AHRC[NMeI]-NH2; disulfide 3-13)		900000 ± 200000 M⁻¹ s⁻¹		1.17e+06 M⁻¹ s⁻¹	650000 M⁻¹ s⁻¹	730000 M⁻¹ s⁻¹			
CC[C@H](C)[C@H](NC(=O)[C@H](N)Cc1ccc(O)cc1)C(=O)N[C@H]1CSSC[C@@H](C(=O)N(C)[C@H](C(N)=O)[C@@H](C)CC)NC(=O)[C@H](CO)NC(=O)[C@H](Cc2c[nH]cn2)NC(=O)[C@H](C)NC(=O)CN(C)C(=O)[C@H](Cc2c[nH]c3ccccc23)NC(=O)[C@H](CO)NC(=O)[C@H](CCC(N)=O)NC(=O)[C@H](Cc2cn(C)c3ccccc23)NC(=O)[C@H](C(C)C)NC1=O [Cp40 D7S/R12S] (H-[dY]ICV[Trp(1-Me)]QSW[Sar]AHSC[NMeI]-NH2; disulfide 3-13)		100000 M⁻¹ s⁻¹	59.1 ± 41.3 nM	20000 M⁻¹ s⁻¹	120000 M⁻¹ s⁻¹	220000 M⁻¹ s⁻¹	117 nM	34.7 nM	25.5 nM
CC[C@H](C)[C@H](NC(=O)[C@H](N)Cc1ccc(O)cc1)C(=O)N[C@H]1CSSC[C@@H](C(=O)N(C)[C@H](C(N)=O)[C@@H](C)CC)NC(=O)[C@H](CCCNC(=N)N)NC(=O)[C@H](Cc2c[nH]cn2)NC(=O)[C@H](C)NC(=O)CN(C)C(=O)[C@H](Cc2c[nH]c3ccccc23)NC(=O)[C@H](CO)NC(=O)[C@H](CCC(N)=O)NC(=O)[C@H](Cc2cn(C)c3ccccc23)NC(=O)[C@H](C(C)C)NC1=O [Cp40 D7S] (H-[dY]ICV[Trp(1-Me)]QSW[Sar]AHRC[NMeI]-NH2; disulfide 3-13)		100000 M⁻¹ s⁻¹	5.6 ± 1.3 nM	80000 M⁻¹ s⁻¹	50000 M⁻¹ s⁻¹	170000 M⁻¹ s⁻¹	4.85 nM	7.48 nM	4.45 nM
CC[C@H](C)[C@H](NC(=O)[C@H](N)Cc1ccc(O)cc1)C(=O)N[C@H]1CSSC[C@@H](C(=O)N(C)[C@H](C(N)=O)[C@@H](C)CC)NC(=O)[C@H](CCCNC(N)=O)NC(=O)[C@H](Cc2c[nH]cn2)NC(=O)[C@H](C)NC(=O)CN(C)C(=O)[C@H](Cc2c[nH]c3ccccc23)NC(=O)[C@H](CC(=O)O)NC(=O)[C@H](CCC(N)=O)NC(=O)[C@H](Cc2cn(C)c3ccccc23)NC(=O)[C@H](C(C)C)NC1=O [Cp40 R12Cit]		600000 ± 100000 M⁻¹ s⁻¹		320000 M⁻¹ s⁻¹	670000 M⁻¹ s⁻¹	790000 M⁻¹ s⁻¹			
CC[C@H](C)[C@H](NC(=O)[C@H](N)Cc1ccc(O)cc1)C(=O)N[C@H]1CSSC[C@@H](C(=O)N(C)[C@H](C(N)=O)[C@@H](C)CC)NC(=O)[C@H](CCCCN)NC(=O)[C@H](Cc2c[nH]cn2)NC(=O)[C@H](C)NC(=O)CN(C)C(=O)[C@H](Cc2c[nH]c3ccccc23)NC(=O)[C@H](CC(=O)O)NC(=O)[C@H](CCC(N)=O)NC(=O)[C@H](Cc2cn(C)c3ccccc23)NC(=O)[C@H](C(C)C)NC1=O [Cp40 R12K] (H-[dY]ICV[Trp(1-Me)]QDW[Sar]AHKC[NMeI]-NH2; disulfide 3-13)				630000 M⁻¹ s⁻¹	470000 M⁻¹ s⁻¹	780000 M⁻¹ s⁻¹			
CC[C@H](C)[C@H](NC(=O)[C@H](N)Cc1ccc(O)cc1)C(=O)N[C@H]1CSSC[C@@H](C(=O)N(C)[C@H](C(N)=O)[C@@H](C)CC)NC(=O)[C@H](CO)NC(=O)[C@H](Cc2c[nH]cn2)NC(=O)[C@H](C)NC(=O)CN(C)C(=O)[C@H](Cc2c[nH]c3ccccc23)NC(=O)[C@H](CC(=O)O)NC(=O)[C@H](CCC(N)=O)NC(=O)[C@H](Cc2cn(C)c3ccccc23)NC(=O)[C@H](C(C)C)NC1=O [Cp40 R12S] (H-[dY]ICV[Trp(1-Me)]QDW[Sar]AHSC[NMeI]-NH2; disulfide 3-13)		200000 M⁻¹ s⁻¹	9.9 ± 0.5 nM	140000 M⁻¹ s⁻¹	180000 M⁻¹ s⁻¹	220000 M⁻¹ s⁻¹	10.2 nM	10.3 nM	9.22 nM
CC[C@H](C)[C@H](NC(=O)[C@H](N)Cc1ccc(O)cc1)C(=O)N[C@H]1CSSC[C@@H](C(=O)N(C)[C@H](C(N)=O)[C@@H](C)CC)NC(=O)[C@H](CCCNC(=N)N)NC(=O)[C@H](Cc2c[nH]cn2)NC(=O)[C@H](C)NC(=O)CNC(=O)[C@H](Cc2c[nH]c3ccccc23)NC(=O)[C@H](CC(=O)O)NC(=O)[C@H](CCC(N)=O)NC(=O)[C@H](Cc2cn(C)c3ccccc23)NC(=O)[C@H](C(C)C)NC1=O [Cp40 Sar9G]		900000 ± 400000 M⁻¹ s⁻¹	1.7 ± 0.7 nM	1.29e+06 M⁻¹ s⁻¹	1.1e+06 M⁻¹ s⁻¹	360000 M⁻¹ s⁻¹	0.92 nM	1.39 nM	2.63 nM
CC[C@H](C)[C@H](NC(=O)[C@H](N)Cc1ccc(O)cc1)C(=O)N[C@H]1CSSC[C@@H](C(=O)N[C@@H](C)C(N)=O)NC(=O)[C@H](CCCNC(=N)N)NC(=O)[C@H](Cc2c[nH]cn2)NC(=O)[C@H](C)NC(=O)CN(C)C(=O)[C@H](Cc2c[nH]c3ccccc23)NC(=O)[C@H](CC(=O)O)NC(=O)[C@H](CCC(N)=O)NC(=O)[C@H](Cc2cn(C)c3ccccc23)NC(=O)[C@H](C(C)C)NC1=O [Cp40 mI14A] (H-[dY]ICV[Trp(1-Me)]QDW[Sar]AHRCA-NH2; disulfide 3-13)		3e+06 ± 1.6e+06 M⁻¹ s⁻¹		4.23e+06 M⁻¹ s⁻¹	1.11e+06 M⁻¹ s⁻¹	3.53e+06 M⁻¹ s⁻¹			
